Laboratory results reported in patent US11879001B2, “Conjugate comprising an IL-2 moiety” (ASCENDIS PHARMA ONCOLOGY DIVISION A/S, priority 2020, dated 2024).
“And” between values parts separate entries of the source, which are not always exact repeats. Identical values can stand only once.

Columns and labels:
[1] = tested on: peripheral blood lymphocytes and eosinophils; assay: Peripheral blood lymphocyte and eosinophil counts (hematology analyzers) in treated Cynos; type: in vivo, Cynomolgus macaques; details: ~0.044 mg/kg IV x5 daily
Experimental: (§1) Two studies were conducted to measure the pharmacodynamic effects of either Aldesleukin (Prometheus, National Drug Code 65483011607) (SEQ ID NO:15) 11 or 5 in Cynos. In the first study, four Cynos ranging in weight from 7.77-10.6 kg (average 9.2 kg) were treated intravenously with five sequential daily 0.4 mg doses of 11 on days 1-5 (average mg/kg: 0.044). In the second study, four Cynos ranging in weight from 2.46-3.69 kg (average 3.13 kg) were treated with a single intravenous dose of either 0.1 mg/kg (n=2) or 0.3 mg/kg (n=2) of 5. All animals were chair trained prior to the study. For both studies, peripheral blood samples were taken before and after treatment at various timepoints as indicated and analyzed for lymphocyte counts, eosinophil counts and cytokines. For animals treated with 5, additional flow cytometry experiments were performed. For measurements of (absolute) lymphocyte counts and eosinophil counts, whole blood was processed on hematology analyzers. For IL-5 and IL-6 cytokine measurements, serum was processed from whole blood and analyzed by ELISA or MSD. For flow cytometry measurements (Immunophenotyping, IPT, FACS), Cynomolgus monkey whole blood was collected in EDTA anticoagulant and kept at room temperature until processed for flow cytometry. Blood was lysed and samples were stained for extracellular surface markers and intracellular phenotypic and lineage markers by standard methods. Cell populations were analyzed using the following phenotypes and gated for percentage of cells which were positive for proliferation marker Ki67.

[2] = tested on: IL-5; assay: Serum IL-5 cytokine levels (ELISA or MSD) in treated Cynos; type: in vivo, Cynomolgus macaques; details: ~0.044 mg/kg IV x5 daily
Experimental: as §1, with “For flow cytometry measurements (Immunophenotyping, IPT, FACS), Cynomolgus monkey whole blood was collected in EDTA anticoagulant and kept at room temperature until processed for flow cytometry. Blood was lysed and samples were stained for extracellular surface markers and intracellular phenotypic and lineage markers by standard methods.” left out

[3] = tested on: IL-6; assay: Serum IL-6 cytokine levels (ELISA or MSD) in treated Cynos; type: in vivo, Cynomolgus macaques; details: ~0.044 mg/kg IV x5 daily
Experimental: as §1

[4] = molecular target: T1, human IL-2Rα (Homo sapiens, UniProt P01589); assay: Biacore binding to human IL-2Rα-Fc; details: independent measurement
T1 construct: purchased
T1 sequence (P01589 22-272): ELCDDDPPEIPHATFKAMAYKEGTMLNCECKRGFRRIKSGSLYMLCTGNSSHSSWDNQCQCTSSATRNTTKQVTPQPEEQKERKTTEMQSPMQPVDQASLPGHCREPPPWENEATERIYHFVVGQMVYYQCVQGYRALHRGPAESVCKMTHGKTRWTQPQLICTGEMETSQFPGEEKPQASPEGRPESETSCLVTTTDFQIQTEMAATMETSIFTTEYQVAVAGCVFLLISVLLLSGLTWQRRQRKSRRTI
Experimental: (§2) Binding affinity/kinetics needed to determine the KD of biased IL-2 to IL-2Rα, the KD of biased IL-2 to IL-2Rβ, the KD of aldesleukin to IL-2Rα and the KD of aldesleukin to IL-2Rβ may be assessed using surface plasmon resonance (SPR), measured on a Biacore instrument (GE Healthcare) as follows: A human Fc capture surface on a CM5 (or alternatively C1 or CM4) chip is prepared by covalent coating with anti-human Fc antibody or alternatively a protein A chip is used. Next, IL-2Rβ-Fc or IL2-Rα-Fc is immobilized on the chip. […] Analytes are each exposed to the receptor-modified chip for a suitable amount of time, such as for 1 to 30 minutes, which may for example be 2 minutes or may be 3 minutes and are then washed away for a suitable amount of time, such as 2 to 60 minutes, which may for example be 10 minutes. The resulting binding curves from the dilution series are fit to a 1:1 kinetic model to correlate observed response units (R) to the association and dissociation rate constants, ka and kd: […]

[5] = molecular target: T2, human IL-2Rβ (Homo sapiens, UniProt P14784); assay: Biacore binding to human IL-2Rβ-Fc
T2 construct: purchased
T2 sequence (P14784 27-551): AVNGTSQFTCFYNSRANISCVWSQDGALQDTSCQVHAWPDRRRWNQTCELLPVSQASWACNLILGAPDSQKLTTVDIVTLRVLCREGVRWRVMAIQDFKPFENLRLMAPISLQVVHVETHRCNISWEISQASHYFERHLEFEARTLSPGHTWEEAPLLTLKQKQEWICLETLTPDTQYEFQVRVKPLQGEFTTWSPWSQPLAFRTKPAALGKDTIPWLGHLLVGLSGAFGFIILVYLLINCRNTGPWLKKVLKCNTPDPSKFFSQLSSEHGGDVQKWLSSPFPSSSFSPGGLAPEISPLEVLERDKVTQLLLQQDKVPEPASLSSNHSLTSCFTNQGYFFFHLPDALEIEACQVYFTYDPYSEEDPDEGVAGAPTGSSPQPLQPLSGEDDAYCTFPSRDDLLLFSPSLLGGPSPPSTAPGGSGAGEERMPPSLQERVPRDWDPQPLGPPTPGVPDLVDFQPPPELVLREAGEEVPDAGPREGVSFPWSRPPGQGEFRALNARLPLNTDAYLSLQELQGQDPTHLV
Experimental: as §2

[6] = tested on: pSTAT5 in Tregs, CD8+ T cells, NK cells; assay: pSTAT5 in lymphocyte subsets of whole human blood (flow cytometry); type: cell-based
Experimental: (§3) To evaluate the cell type specific immunostimulatory effects of 3 in primary human or monkey cells, whole human or cynomolgus monkey blood from two donors each was incubated with various concentrations of 3 or 13 for 30 minutes and analyzed by flow cytometry for intracellular levels of phosphorylated STAT5 (pSTAT5) in unique cell subsets such as Tregs which predominately express IL-2Rα/β/γ as well as CD8+ T cells (CD8) and NK cells which predominately express IL-2Rβ/γ. Additionally, CD8^+ T cells were further analyzed for CD8^+ CD45RA^+ Naïve (CD8 N) as well as CD8^+ CD45RA^− Memory (CD8 M) subsets. Similar experiments were performed with mouse blood using a different panel of mouse specific antibodies. All subsets were analyzed for median fluorescence intensities of pSTAT5 and EC50 values were calculated for each compound across all cell types.

[7] = tested on: pSTAT5 in Tregs, CD8+ T cells, NK cells; assay: pSTAT5 in lymphocyte subsets of whole cynomolgus monkey blood (flow cytometry); type: cell-based
Experimental: as §3

[8] = tested on: pSTAT5 in Tregs, CD8+ T cells, NK cells; assay: pSTAT5 in lymphocyte subsets of mouse blood (flow cytometry); type: cell-based
Experimental: [The source words this procedure for another organism and says it was used here with some conditions changed.] as §3, with “Similar experiments were performed with mouse blood using a different panel of mouse specific antibodies.” left out

## 11: Aldesleukin, recombinant human Interleukin-2 (SEQ ID NO:15) [Compound 11]
[1]; Day 8
  average fold increase in eosinophil counts: 6.92 fold
  average fold increase in lymphocyte counts: 2.77 fold
[1]; Day 10
  average fold increase in eosinophil counts: 5.94 fold
  average fold increase in lymphocyte counts: 2.79 fold
[1]; Study Day 1
  Lymphocyte Counts: 4995 µL⁻¹ and 4670.6 µL⁻¹ and 4845 µL⁻¹ and 4617.6 µL⁻¹
[1]; Study Day 4
  Lymphocyte Counts: 3739.1 µL⁻¹ and 2646 µL⁻¹ and 2703.2 µL⁻¹ and 3034 µL⁻¹
[1]; Study Day 5
  Lymphocyte Counts: 4144.5 µL⁻¹ and 3990 µL⁻¹ and 3784 µL⁻¹
[1]; Study Day 8
  Lymphocyte Counts: 11186 µL⁻¹ and 11088 µL⁻¹ and 8086 µL⁻¹ and 14958 µL⁻¹
[1]; Study Day 9
  Lymphocyte Counts: 10260 µL⁻¹ and 10045 µL⁻¹ and 9548 µL⁻¹ and 13878 µL⁻¹
[1]; Study Day 10
  Lymphocyte Counts: 8316 µL⁻¹ and 10664 µL⁻¹ and 12079 µL⁻¹ and 14885 µL⁻¹
[1]; Study Day 11
  Lymphocyte Counts: 7304 µL⁻¹ and 9640 µL⁻¹ and 8736 µL⁻¹ and 7720 µL⁻¹
[1]; Study Day 12
  Lymphocyte Counts: 5652 µL⁻¹ and 9520 µL⁻¹ and 8325 µL⁻¹ and 7518 µL⁻¹
[1]; Study Day 15
  Lymphocyte Counts: 6720 µL⁻¹ and 9700 µL⁻¹ and 5468.3 µL⁻¹ and 6198.4 µL⁻¹
[1]; Study Day 19
  Lymphocyte Counts: 2385.6 µL⁻¹ and 3965.5 µL⁻¹ and 2067 µL⁻¹ and 3139.5 µL⁻¹
[1]; Study Day -4 (Baseline)
  Lymphocyte Counts: 4032 µL⁻¹ and 4514.4 µL⁻¹ and 4189.5 µL⁻¹ and 3564 µL⁻¹
[1]; Study Day -5 (Baseline)
  Lymphocyte Counts: 4074 µL⁻¹ and 3530.6 µL⁻¹ and 4719 µL⁻¹ and 4376.3 µL⁻¹
[2]
  average serum peak IL-5 levels: 117.78 pg/mL
[2]; Study Day -3
  IL-5: 0.28 pg/mL and 0.1895 pg/mL and 0.2445 pg/mL and 0.233 pg/mL
[3]
  average serum peak IL-6 levels: 58.66 pg/mL
[3]; Study Day 2.25
  IL-6: 6.79 pg/mL and 9.02 pg/mL and 7.69 pg/mL and 9.95 pg/mL
[3]; Study Day 5
  IL-6: 0.75 pg/mL and 0.81 pg/mL and 0.46 pg/mL and 0.48 pg/mL
[3]; Study Day 5.25
  IL-6: 3.67 pg/mL and 3.59 pg/mL and 2.42 pg/mL and 4.21 pg/mL
[4]
  KD for IL-2Rα compared with 12: highly comparable KD values
[5]; independent measurement
  KD for IL-2Rβ compared with 12: highly comparable KD values

## 12: unbiased control recombinant human IL-2 (SEQ ID NO:45) [Compound 12]
[5]; Biacore
  Kd: ~500 nM

## 13: his-tagged mammalian expressed control human IL-2 (SEQ ID NO:46) [Compound 13]
[6]; additional human blood experiments (Table 29), CD8
  pSTAT5 EC50, CD8: 4.94 ng/mL
[6]; additional human blood experiments (Table 29), NK
  pSTAT5 EC50, NK: 17.59 ng/mL
[6]; additional human blood experiments (Table 29), Treg
  pSTAT5 EC50, Treg: 0.047 ng/mL
[6]; human blood, 30 minutes
  EC50 for pSTAT5 in NK cells: 6.01 ng/ml
  EC50 for pSTAT5 in Tregs: 0.09 ng/ml
[6]; whole human blood, 30 minutes, CD8+ T cells (Table 27)
  pSTAT5 EC50, CD8: 25.69 ng/mL
[7]; cynomolgus monkey Treg vs human Treg, pSTAT5 EC50
  Fold Potency Loss vs Human, Treg: 1
[7]; whole cynomolgus monkey blood, 30 minutes, Treg
  pSTAT5 EC50, Treg: 0.09 ng/mL
[8]; mouse CD8 vs human CD8, pSTAT5 EC50
  Fold Potency Loss vs Human, CD8: 935.79
[8]; mouse NK vs human NK, pSTAT5 EC50
  Fold Potency Loss vs Human, NK: 1613.10
[8]; mouse Treg vs human Treg, pSTAT5 EC50
  Fold Potency Loss vs Human, Treg: 4.11
[8]; mouse blood
  EC50 for pSTAT5 in NK cells: 9,694.74 ng/ml
  EC50 for pSTAT5 in Tregs: 0.37 ng/ml
[8]; mouse blood, CD8+ T cells
  pSTAT5 EC50, CD8: 24,040.56 ng/mL
